What was measured:
[1] = in vitro liver microsome metabolic stability, beagle dog; assay type: in vitro ADME; details: Beagle dog liver microsomes, 37°C
Procedure: (§1) Preparation of working solutions for test compounds and standards: An appropriate amount of the compound was accurately weighed and dissolved in a corresponding volume of suitable solvent to prepare 1 mM stock solutions of the test compounds and standards. The stock solutions were then diluted with appropriate solvent to obtain 100 µM working solutions of the test compounds, ensuring that the DMSO content in the working solutions remained below 10%.
(§2) The internal standard compound testosterone (or tolbutamide) and its corresponding solvent, internal standard concentration (200 ng/mL), were selected based on the properties of the test compound.
(§3) • Solution A: 0.1 mol/L K2HPO4 (2.28 g K2HPO4·3H2O was dissolved in 100 mL of double-distilled water); • Solution B: 0.1 mol/L KH2PO4 (1.36 g KH2PO4 was dissolved in 100 mL of double-distilled water); • 80.2 mL of Solution A and 19.8 mL of Solution B were mixed thoroughly, and the pH was adjusted to 7.4.
(§4) 37.5 mg of glycine was weighed, dissolved in 100 mL of ultrapure water, and adjusted to pH 8.0 with NaOH.
(§5) 1.25 mg of glucose-6-phosphate dehydrogenase (400 U/mg) was weighed (the specific amount weighed was calculated based on the activity of the purchased glucose-6-phosphate dehydrogenase), dissolved in 1 mL of glycine buffer to a concentration of 500 U/mL, aliquoted into 20 µL per tube, and stored at -20°C for future use.
(§6) 7.83 mg of NADP, 0.06 mL of D-glucose-6-phosphate (260 mg/mL), and 10.17 mg of MgCl2·6H2O were precisely weighed.
(§7) The mixture was dissolved in 1 mL of pure water. The cofactor ratio composition: NADP 10 mM, D-glucose-6-phosphate 60 mM, MgCl2·6H2O 50 mM.
(§8) The reaction system (taking a 500 µL system as an example) was composed of the following solution ratios: 416.5 µL phosphate buffer, 5 µL compound working solution, 25 µL liver microsomes, 3.5 µL glucose-6-phosphate dehydrogenase, and 50 µL cofactor solution. The total incubation volume could be adjusted according to experimental requirements.
(§9) 416.5 µL of phosphate buffer was taken, 25 µL of liver microsomes, 3.5 µL of glucose-6-phosphate dehydrogenase, and 50 µL of cofactor solution were added, vortexed twice to mix, and preincubated in a 37°C water bath for 5 minutes. Then, 5 µL of the test compound working solution was added, vortexed twice to mix, each time for 2-3 seconds, and placed in a 37°C water bath to initiate the reaction, with two parallel samples set. At 0.5 min, 1 min, 2 min, 5 min, 15 min, and 30 min after the reaction, 50 µL of the mixture was taken and added to centrifuge tubes containing 200 µL of 0°C pre-cooled internal standard working solution to terminate the reaction, vortexed for 1 minute to mix, and centrifuged at 13,000 rpm for 10 minutes in a 4°C pre-cooled high-speed centrifuge. The supernatant was collected for analysis. After the compound was added and vortex-mixed, 50 µL of the mixture was rapidly transferred to a centrifuge tube containing 200 µL of a pre-cooled (0°C) internal standard working solution to terminate the reaction, vortex-mixed for 1 minute, and used as the relative zero-point sample (relative to the standard group). The sample was then placed into a 37°C water bath to initiate the reaction, and timing was started.
(§10) The sample analysis of the test compound was performed using the liquid chromatography-tandem mass spectrometry (LCMS/MS) method. The semi-quantitative determination was performed using the ratio of the analyte peak area to the internal standard peak area. The retention times of the analyte and internal standard, chromatogram acquisition, and chromatogram integration were processed using Analyst software.
(§11) The in vitro elimination rate constant k of the test compound and the control compound was determined by converting the ratio of the peak area of the test compound to the internal standard into the remaining rate, and T1/2 was then calculated according to the following formula. T1/2 = (Ln2)/(k) = (0.693)/(k) [formula] Table 3. […]

[2] = in vitro liver microsome metabolic stability, rat; assay type: in vitro ADME; details: Rat liver microsomes, 37°C
Procedure: as §1, §2, §3, §4, §5, §6, §7, §8, §9, §10, §11

[3] = in vitro liver microsome metabolic stability, human; assay type: in vitro ADME; details: Human liver microsomes, 37°C
Procedure: as §1, §2, §3, §4, §5, §6, §7, §8, §9, §10, §11

human CCR6 = target: T1, human CCR6 (Homo sapiens, UniProt P51684); assay: human CCR6 calcium flux activity (FLIPR, HEK293 cells stably expressing human CCR6, CCL20 stimulation); assay type: cell-based; details: HEK293 cells stably expressing human CCR6, EC80 human MIP-3 alpha/CCL20; read-out: CCR6 inhibitory activity, IC50
T1 construct: expressed in transfected cells; host or cells: HEK293
T1 sequence (P51684 1-374): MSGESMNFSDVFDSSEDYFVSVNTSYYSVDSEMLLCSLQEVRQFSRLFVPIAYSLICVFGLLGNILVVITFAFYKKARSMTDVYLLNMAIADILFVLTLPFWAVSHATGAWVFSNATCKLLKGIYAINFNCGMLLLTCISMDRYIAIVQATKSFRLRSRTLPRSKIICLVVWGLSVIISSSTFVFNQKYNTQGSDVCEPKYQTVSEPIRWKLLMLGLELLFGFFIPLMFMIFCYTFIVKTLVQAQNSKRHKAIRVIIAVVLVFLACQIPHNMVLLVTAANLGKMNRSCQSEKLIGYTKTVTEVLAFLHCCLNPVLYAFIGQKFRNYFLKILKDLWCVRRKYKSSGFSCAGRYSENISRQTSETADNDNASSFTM
Procedure: The activity of the compounds was evaluated using HEK293 cells stably expressing human CCR6 via the FLIPR platform. A 384-well black cell culture plate (Greiner, 781946) was used, with a seeding density of 20,000 cells/well, and incubated overnight at 37°C in a 5% CO2 incubator. The culture medium in the cell plate wells was removed, and 20 µL of Fluo-4 Direct™ Calcium Assay Buffer (Invitrogen, F10471, Component C), 20 µL of 2× Fluo-4 Direct™ Calcium Assay Reagent (Invitrogen, F10471, Component A) working solution, and 10 µL of 6× test compound working solution were sequentially added to each well. The cell plate was incubated in a 37 °C, 5% CO2 incubator for 50 min, followed by a 10 min incubation at room temperature. Additionally, a 6×EC80 human MIP-3 alpha/CCL20 (MCE, HY-P7262) working solution was prepared. After the incubation was completed, 10 µL/well of the 6×EC80 human MIP-3 alpha/CCL20 working solution was transferred to the cell plate using a FLIPR instrument, and the fluorescence signal changes at an excitation wavelength of 494 nm and an emission wavelength of 516 nm were recorded over 90 seconds. The difference between the maximum fluorescence signal (RFUMax) and the minimum fluorescence signal (RFUMin) was used as the output signal. The compound inhibition rate and the log value of the compound concentration were calculated, and a four-parameter fitting analysis was performed using GraphPad Prism 8 software to obtain the IC50 value of the test compound.

[4] = in vivo pharmacokinetic study in SD rats; details: male, rat, plasma; for AUC(0-t) / Cmax / half-life: 1 mg/kg
Procedure: 2.2.1 Rats: SD rats, SPF grade, 6 rats per compound, male, body weight range 180-200 g.
2.2.2 Housing conditions: The animals were housed in an SPF-grade animal facility with free access to food and water, three per cage, under a 12/12-hour light/dark cycle (7:00 am/7:00 pm), at a temperature of 23 ± 3°C.
2.2.3 Drug preparation: The compound was precisely weighed, mixed with the required volume of 1% Tween 80, vortexed for 2 min, and then sonicated for 5 min until no visible particles remained. The mixture was subsequently stirred on a magnetic stirrer for 20 min, and the middle layer of the drug solution was collected for administration. For the IV group, the compound was accurately weighed, dissolved in the required volume of 50% PEG400, sonicated for 10 min, and vortexed until clear before administration.
The rats were randomly divided into 2 groups based on body weight, with 3 rats per compound per group. Group 1 was administered a single oral gavage dose (fasted), and Group 2 was administered a single tail vein bolus injection. Blood collection time points: for the po group, blood was collected at 0.167 h, 0.5 h, 1 h, 2 h, 3 h, 4 h, 6 h, and 8 h; for the iv group, blood was collected at 0.033 h, 0.167 h, 0.5 h, 1 h, 2 h, 4 h, 6 h, and 8 h.
After administration to the rats, blood was collected from the orbital venous plexus according to the sampling time points. Approximately 0.2-0.3 mL of blood was collected at each time point into anticoagulant EP tubes (containing 4 µL of EDTA-K2, 375 mg/mL, dried at 50°C). The tubes were slowly inverted up and down three times and stored in an ice box (for no more than 30 minutes). Centrifugation was performed at 4°C at 3000 × g for 10 minutes, and the supernatant was transferred to labeled EP tubes for bioanalytical testing. If testing could not be performed on the same day, the samples were stored at -80°C until analysis (care was taken to avoid multiple freeze/thaw cycles).
The data were analyzed using WinNonlin via a non-compartmental model to obtain PK parameters (Cmax, AUC0-last, AUCinf, T1/2, etc., selected based on different routes of administration). For specific data, please refer to Table 2. Table 2. PK experimental results of compounds in SD rats

SMILES | Liver microsome T1-2 (min) Beagle dog [1] [min] | Liver microsome T1-2 (min) Rat [2] [min] | Liver microsome T1-2 (min) Human [3] [min] | further results
CN(CC(F)(F)F)C(=O)c1nccc(Nc2c(N[C@@H](c3ccc(F)cn3)C3(C)CCCC3)c(=O)c2=O)c1O [compound 070, (R)-4-((2-(((5-fluoropyridin-2-yl)(1-methylcyclopentyl)methyl)amino)-3,4-dioxocyclobut-1-en-1-yl)amino)-3-hydroxy-N-methyl-N-(2,2,2-trifluoroethyl)picolinamide] | 37.22 | 34.22 | 201.75 | –
CN(CC(F)F)C(=O)c1nccc(Nc2c(N[C@@H](c3ccc(F)cn3)C3(C)CCCC3)c(=O)c2=O)c1O [compound 071, (R)-N-(2,2-difluoroethyl)-4-((2-(((5-fluoropyridin-2-yl)(1-methylcyclopentyl)methyl)amino)-3,4-dioxocyclobut-1-en-1-yl)amino)-3-hydroxy-N-methylpicolinamide] | 54.52 | 52.81 | 262.47 | –
Cc1cccnc1C(Nc1c(Nc2ccc(Cl)c(C(=O)N(C)C)c2O)c(=O)c1=O)C1(C)CC(F)(F)CO1 (centres unmarked) [compound 080, 6-chloro-3-((2-(((4,4-difluoro-2-methyltetrahydrofuran-2-yl)(3-methylpyridin-2-yl)methyl)amino)-3,4-dioxocyclobut-1-en-1-yl)amino)-2-hydroxy-N, N-dimethylbenzamide] | 1205.26 | 109.92 | 539.06 | –
CC#CC(Nc1c(Nc2ccnc(C(=O)N(C)C)c2O)c(=O)c1=O)C1(C)CC(F)(F)CO1 (centres unmarked) [compound 112, 4-((2-((1-(4,4-difluoro-2-methyltetrahydrofuran-2-yl)but-2-yn-1-yl)amino)-3,4-dioxocyclobut-1-en-1-yl)amino)-3-hydroxy-N,N-dimethylpicolinamide] | – | 560.45 | – | IC50 (human CCR6): 165 nM
Cc1nccnc1[C@H](Nc1c(Nc2ccc(F)c(C(=O)N(C)C)c2O)c(=O)c1=O)C1(C)CCCC1 [compound 130, (R)-6-fluoro-2-hydroxy-N,N-dimethyl-3-((2-(((1-methylcyclopentyl)(3-methylpyrazin-2-yl)methyl)amino)-3,4-dioxocyclobut-1-en-1-yl)amino)benzamide] | 2270.89 | 109.49 | – | bioavailability ([4]; 1 mg/kg PO vs 1 mg/kg IV, read-out: Oral bioavailability F (%)): 24%; AUC(0-t) ([4]; IV): 752 ng·h/mL; Cmax ([4]; IV): 5530 ng/mL; half-life ([4]; IV): 0.22 h; AUC(0-t) ([4]; PO): 181 ng·h/mL; Cmax ([4]; PO): 158 ng/mL; half-life ([4]; PO): 2.79 h

Further lines, with some results ahead:

Liver microsome T1-2 (min) Beagle dog [1] [min] | Liver microsome T1-2 (min) Rat [2] [min] | Liver microsome T1-2 (min) Human [3] [min] | SMILES | further results
160.31 | 78.14 | 310.89 | Cc1cccnc1[C@H](Nc1c(Nc2ccnc(C(=O)N(C)C)c2O)c(=O)c1=O)[C@@]1(C)CC(F)(F)CO1 (single isomer, unassigned) [128A] | –
431.98 | 120.46 | 511.03 | Cc1cccnc1C(Nc1c(Nc2ccc(F)c(C(=O)N(C)C)c2O)c(=O)c1=O)[C@]1(C)CC(F)(F)CO1 (stereo partly drawn) [087A, 3-((2-((((S)-4,4-difluoro-2-methyltetrahydrofuran-2-yl)(3-methylpyridin-2-yl)methyl)amino)-3,4-dioxocyclobut-1-en-1-yl)amino)-6-fluoro-2-hydroxy-N,N-dimethylbenzamide] | –
567.51 | 571.31 | 369.68 | Cc1cccnc1C(Nc1c(Nc2ccc(F)c(C(=O)N(C)C)c2O)c(=O)c1=O)[C@@]1(C)CC(F)(F)CO1 (stereo partly drawn) [087B, 3-((2-((((R)-4,4-difluoro-2-methyltetrahydrofuran-2-yl)(3-methylpyridin-2-yl)methyl)amino)-3,4-dioxocyclobut-1-en-1-yl)amino)-6-fluoro-2-hydroxy-N,N-dimethylbenzamide] | –

Source: patent EP4703354A1, “COMPOUND AS CCR6 ANTAGONIST, AND PHARMACEUTICAL COMPOSITION AND USE THEREOF” (Wuhan Createrna Science and Technology Co.,Ltd., priority 2023, dated 2024)
